Reference: patent US9243247B2, “Composition for promoting apoptosis or inhibiting cell growth, comprising epstein-barr virus microrna” (Catholic University Industry Academic Cooperation Foundation, priority 2011, dated 2016)

What was measured:
Type in all cases: cell-based
[1] = test system: AGS cell strain; assay: Measurement of apoptosis (Annexin V staining, FACS); conditions: for Relative Apoptotic cell: mimic 10 nM, 10 uM 5-FU 24 h after transfection, then 48 hours, Annexin V, relative to scrambled control (=1), n=9; for effect on cell growth and apoptosis (summary statement): mimics transfected to AGS, tumor cell strain not infected with EBV
Procedure: Immediately after the AGS cell strain, which is an EBV-negative cell strain, was divided was divided into a 6-well plate such that 2×10^5 AGS cells were allocated to each well, a synthesized miRNA (10 nM) was transfected by using G-fectin and the resulting mixture was cultured at 37 t in an incubatorTwenty four hours after the transfection, 10 uM of 5-FU was treated and the resulting mixture was cultured in an incubator at 37° C. for 48 hours. The cells were detached by using Trypsin-EDTA and washed with PBS two times. Afterwards, the cells were treated with a PE Annexin V Apoptosis Detection Kit and the changed ratio of apoptotic cell was investigated by FACS (FIG. 7).
Immediately after the AGS cell strain, which is an EBV-negative cell strain, is divided into a 6-well plate such that 2×10^5 AGS cells were allocated to each well, a synthesized miRNA (10 nM) was transfected by using G-fectin and the resulting mixture was cultured at 37° C. Twenty four hours after the transfection, 10 uM of 5-FU, which is an anti-cancer agent, was treated and the resulting mixture was cultured in an incubator at 37° C. for 48 hours. The cells were detached by using Trypsin-EDTA and washed with PBS two times. Afterwards, the cells were treated with a PE Annexin V Apoptosis Detection Kit and the ratio of cells where apoptosis took place was measured by FACS.

[2] = test system: AGS cell strain; assay: Cell growth test (CCK-8 assay) after transfection of BART miRNA mimics; conditions: for Relative Cell Growth: relative to scrambled control (=1)
Procedure: An AGS cell strain (Korean Cell Line Bank), which is a stomach cancer cell strain, was cultured in an RPMI1640 (Gibco) culture medium including 10% fetal bovine serum. Mature type synthesized BART miRNAs were transfected to the AGS cell strain by using G-fectin (Genolution) according to a protocol of the manufacture.
To investigate the effect of individual EBV BART miRNAs on the AGS cell strain, the synthesized miRNAs were transfected to the AGS cell strain and, after 72 hours, cells were counted by CCK-8 assay.
Immediately after the AGS cell strain, which is an EBV-negative cell strain, was divided into 96-well plate having 1×10^3 cells/well, a synthesized miRNA (10 nM) was transfected by using G-fectin. After the transfection, according to the experimental objective, the cells were cultured at 37° C. in an incubator, and then CCK-8 was divided among the wells by allocating 10 μl of CCK-8 to each well and the resulting mixture was cultured in an incubator at 37° C. for two hours. Then, the light absorbance was measured with an ELISA measuring instrument.
By the method described in Example 3, miR-BART5-5p mimic or miR-BART15-3p mimic (10 nM) were transfected to the AGS cell strain, and the effect thereof on cell growth was investigated over time.
miR-BART5-5p, miR-BART15-3p, and miR-BART20-3p were transfected to the AGS cell strain (1×10^3 cells/well) in a concentration of 1, 3, 10, and 30 nM, and the effect on cell growth was investigated. Immediately after the AGS cell strain was divided into a 96-well plate such that 1×10^3 AGS cells were allocated to each well, a synthesized miRNA was transfected by using G-fectin. Seventy two hours after the transfection, CCK-8 was divided among the wells by allocating 10 μl of CCK-8 to each well, and the resulting mixture was cultured at 37° C. in an incubator for two hours.

[3] = test system: AGS cell strain; assay: Effect on cell cycle (propidium iodide staining, FACS, sub G1); conditions: for Relative Sub G1: mimic 10 nM, 10 uM 5-FU 24 h after transfection, then 48 hours, relative to scrambled control (=1)
Procedure: The AGS cells were divided into a 96-well plate such that 2×10^5 AGS cells were allocated to each well, and synthesized miRNAs (10 nM) were transfected and cultured at 37° C. in an incubator. Twenty four hours after the transfection, 10 uM of 5-FU, which is an anti-cancer agent, was treated in one case or not treated in another case, and then the resulting mixture was cultured in an incubator at 37° C. for 48 hours. The cells were detached by using Trypsin-EDTA and washed with PBS two times.
Immediately after the AGS cell strains, which are EBV-negative cell strains, were divided into a 6-well plate such that 2×10^5 AGS cells were allocated to each well, a synthesized miRNA (10 nM) was transfected by using G-fectin and cultured at 37° C. in an incubator. Twenty four hours after the transfection, 10 uM of 5-FU was treated and the resulting mixture was cultured at 37° C. in an incubator for 48 hours. The cells were detached by using Trypsin-EDTA and washed with PBS two times. Afterwards, DNA was stained by propidium iodide staining and the ratio of cells where cell cycle was changed was investigated by FACS.

[4] = mimic 10 nM, 72 hours after transfection, n=9
[5] = AGS, mimic 10 nM in combination with 10 uM 5-FU

Substance	Relative Apoptotic cell ([1]; AGS)	Relative Cell Growth [2, 4]	Relative Sub G1 [3]	effect on cell growth and apoptosis (summary statement) [1]	also measured
BART1-3p: EBV BART miRNA mimic, double stranded RNA; sense SEQ NO: 11, antisense SEQ NO: 12 (sense UAGCACCGCUAUCCACUAUGUC; antisense GACAUAGUGGAUAGCGGUGCUA; chemistry not given here)	0.9231	1.201	0.7947	–	–
BART1-5p: EBV BART miRNA mimic, double stranded RNA; sense SEQ NO: 9, antisense SEQ NO: 10 (sense UCUUAGUGGAAGUGACGUGCUGUG; antisense CACAGCACGUCACUUCCACUAAGA; chemistry not given here)	1.08	1.141	0.8028	inhibit cell growth and promote apoptosis	Relative Apoptotic cell ([1]; AGS, listed as 1-5p): significantly higher
BART2-3p: EBV BART miRNA mimic, double stranded RNA; sense SEQ NO: 87, antisense SEQ NO: 88 (sense AAGGAGCGAUUUGGAGAAAAUAAA; antisense UUUAUUUUCUCCAAAUCGCUCCUU; chemistry not given here)	1.062	1.433	1.178	inhibit cell growth and promote apoptosis	Relative Apoptotic cell ([1]; AGS, listed as 2-3p): significantly higher
BART2-5p: EBV BART miRNA mimic, double stranded RNA; sense SEQ NO: 85, antisense SEQ NO: 86 (sense UAUUUUCUGCAUUCGCCCUUGC; antisense GCAAGGGCGAAUGCAGAAAAUA; chemistry not given here)	1.082	1.085	1.092	–	–
BART3-3p: EBV BART miRNA mimic, double stranded RNA; sense SEQ NO: 3, antisense SEQ NO: 4 (sense CGCACCACUAGUCACCAGGUGU; antisense ACACCUGGUGACUAGUGGUGCG; chemistry not given here)	1.111	1.135	0.9648	–	–
BART3-5p: EBV BART miRNA mimic, double stranded RNA; sense SEQ NO: 1, antisense SEQ NO: 2 (sense ACCUAGUGUUAGUGUUGUGCU; antisense AGCACAACACUAACACUAGGU; chemistry not given here)	1.016	1.272	0.8224	–	–
BART4-3p: EBV BART miRNA mimic, double stranded RNA; sense SEQ NO: 7, antisense SEQ NO: 8 (sense CACAUCACGUAGGCACCAGGUGU; antisense ACACCUGGUGCCUACGUGAUGUG; chemistry not given here)	1.133	1.065	0.755	inhibit cell growth and promote apoptosis	Relative Apoptotic cell ([1]; AGS, listed as 4-3p): significantly higher
BART4-5p: EBV BART miRNA mimic, double stranded RNA; sense SEQ NO: 5, antisense SEQ NO: 6 (sense GACCUGAUGCUGCUGGUGUGCU; antisense AGCACACCAGCAGCAUCAGGUC; chemistry not given here)	1.204	0.9348	1.236	inhibit cell growth and promote apoptosis	Relative Apoptotic cell ([1]; AGS, listed as miR-BART4-5p): significantly higher; Relative Sub G1 ([3]; listed as miR-BART4-5p): increased
BART5-3p: EBV BART miRNA mimic, double stranded RNA; sense SEQ NO: 19, antisense SEQ NO: 20 (sense GUGGGCCGCUGUUCACCU; antisense AGGUGAACAGCGGCCCAC; chemistry not given here)	1.17	0.9583	0.9486	inhibit cell growth and promote apoptosis	–
BART5-5p: EBV BART miRNA mimic, double stranded RNA; sense SEQ NO: 17, antisense SEQ NO: 18 (sense CAAGGUGAAUAUAGCUGCCCAUCG; antisense CGAUGGGCAGCUAUAUUCACCUUG; chemistry not given here)	1.325	0.5231	2.111	inhibit cell growth and promote apoptosis	ratio of early apoptotic cell [1, 5]: increased; ratio of late apoptotic cell [1, 5]: increased; degree of apoptosis, combination with 5-FU versus sum of single treatments ([1]; AGS, mimic 10 nM plus 10 uM 5-FU): synergetic effect; ratio of early apoptotic cell ([1]; AGS, mimic 10 nM treated alone): increased; ratio of late apoptotic cell ([1]; AGS, mimic 10 nM treated alone): increased; Relative Apoptotic cell ([1]; AGS, listed as 5-5p): significantly higher; cell growth depending on mimic concentration (onset of inhibition) ([2]; 1, 3, 10 and 30 nM, 72 hours after transfection): a tendency to inhibit cell growth beginning at 10 nM; Relative Cell Growth ([2]; mimic 10 nM, 72 hours after transfection, n=9, listed as miR-BART5-5p): inhibited cell growth; cell growth over time ([2]; mimic 10 nM, depending on treatment time): greatly decreased cell growth; ratio of sub G1 after the 5-FU treatment ([3]; mimic 10 nM plus 10 uM 5-FU (Example 6)): greatly increased; Relative Sub G1 ([3]; listed as 5-5p): increased
BART6-3p: EBV BART miRNA mimic, double stranded RNA; sense SEQ NO: 31, antisense SEQ NO: 32 (sense CGGGGAUCGGACUAGCCUUAGA; antisense UCUAAGGCUAGUCCGAUCCCCG; chemistry not given here)	1.018	0.9101	1.24	–	Relative Sub G1 ([3]; listed as 6-3p): increased
BART6-5p: EBV BART miRNA mimic, double stranded RNA; sense SEQ NO: 29, antisense SEQ NO: 30 (sense UAAGGUUGGUCCAAUCCAUAGG; antisense CCUAUGGAUUGGACCAACCUUA; chemistry not given here)	1.117	0.881	1.023	–	–
